For 33 compounds, IC50 results are on record in patent publication US12006289B2, “Potassium channel inhibitors” (Saniona A/S, priority 2019, dated 2024).

In the assay the target is erythrocyte KCa3.1 channels (Homo sapiens (Human), UniProt O15554). The assay is described as follows: Erythrocyte KCa3.1 assay. The following applies: human erythrocytes, A23187-activated, 37° C.; read-out: RBC K (in vitro) Human IC50. Type of assay: cell-based. Here is the method: Human blood was drawn from healthy human volunteers in a standard heparinized blood sampling vial (Vacutainer, Li/heparin, BD Bioscience, Plymouth, UK). The erythrocytes were packed by centrifugation, and the plasma and buffy coat were removed by aspiration. Erythrocytes were washed three times in the experimental salt solution and then stored at 0° C. until use. Blood samples from NMRI mice or from Wistar rats were treated similarly. The methodological principle is outlined in Macey et al. (1978) and further described in Strøbæk et al. (2013). Activation of the erythrocyte KCa3.1 channels were obtained by addition of the Ca^2+ ionophore A23187, which causes synchronized hyperpolarization, which is reported as a CCCP-mediated shift in the unbuffered extracellular pH of the erythrocyte suspension. Standard procedure: 3 mL unbuffered experimental salt solution (in mM: 2 KCl, 154 NaCl, 0.05 CaCl2) was heated to 37° C. with stirring. Packed erythrocytes were added (50 μL, final cytocrit 1.5%), and the extracellular pH (pHo) followed with a glass/calomel (pHG200-8/REF200, Radiometer, Denmark) electrode pair. CCCP (3 μL, final concentration 20 μM) was added followed by varying concentrations of test compounds (DMSO concentration constant). After pH stabilization at ˜7.2, A23187 (3 μL, final concentration 0.33 μM) was added to initiate the experiment. After the peak hyperpolarization was attained, the intracellular pH (pHi constant during the experiment) was found by haemolysing the erythrocytes via addition of 100 μL of Triton-X100.
The erythrocyte membrane potential, Vm, was calculated according to: Vm=−61.5 mV×(pHo−pHi) and the fractional remaining Ca^2+-activated K^+-conductance at the concentration C of blocker, fGK(C), was calculated from
[formula] where the K^+ equilibrium potential EK=−107 mV, the Cl^− equilibrium potential ECl=−12 mV and the Vm(0) and Vm(C) are the peak hyperpolarizations in the control and in the presence of a concentration of C of blocker respectively.
IC50 values for compounds were calculated from a plot of fGK(C) versus C by a fit to the Hill equation, using a custom program written in the IGOR-Pro software (WaveMetrics, Lake Oswego, OR, USA). All IC50-values are reported in μM.

`CC(C)(N)CN(C1CC1)C1(c2cccc(C(F)(F)F)c2)CC1` [[10], N1-cyclopropyl-2-methyl-N1-(1-(3-(trifluoromethyl)phenyl)cyclopropyl)propane-1,2-diamine]: the concentration for half-maximal inhibition (IC50) (commonly the concentration that inhibits the measured activity by half) worked out at 0.024 µM. The result for `COC(=O)N(CC(C)(C)N)C1(c2ccc(F)c(OC(F)(F)F)c2)CC1` [[20], Methyl (2-amino-2-methylpropyl)(1-(4-fluoro-3-(trifluoromethoxy)phenyl)cyclopropyl)carbamate] reads 0.092 µM; that for `CS(=O)(=O)N(CC1(N)CC1)C1(c2ccc(F)c(C(F)(F)F)c2)CC1` [[49], N-((1-aminocyclopropyl)methyl)-N-(1-(4-fluoro-3-(trifluoromethyl)-phenyl)cyclopropyl)methanesulfonamide], 0.39 µM. Regarding `COC(=O)N(CC(C)(C)N)C1(c2cccc(Br)c2)CC1` [[12], Methyl (2-amino-2-methylpropyl)(1-(3-bromophenyl)cyclopropyl)carbamate], the half-maximal inhibitory concentration (IC50) amounted to 0.4 µM.

For `O=C(OC1CC1)N(C[C@@H]1CCCN1)C1(c2ccc(F)c(C(F)(F)F)c2)CC1` [[45], Cyclopropyl (S)-(1-(4-fluoro-3-(trifluoromethyl)phenyl)cyclopropyl)(pyrrolidin-2-ylmethyl)carbamate], the half-maximal inhibitory concentration (IC50) was determined as 0.18 µM.

`COC(=O)N1CC(N(C(=O)OC)C2(c3ccc(F)c(C(F)(F)F)c3)CC2)C1` [[4], Methyl 3-((1-(4-fluoro-3-(trifluoromethyl)phenyl)cyclopropyl) (methoxycarbonyl)amino)azetidine-1-carboxylate]: the IC50 is 0.071 µM. The result for `COC(=O)N(C[C@@]1(C)CCCN1)C1(c2ccc(F)c(C(F)(F)F)c2)CC1` [[46], Methyl (R)-(1-(4-fluoro-3-(trifluoromethyl)phenyl)cyclopropyl)((2-methylpyrrolidin-2-yl)methyl)carbamate] reads 0.1 µM; that for `COC(=O)N(C[C@H]1CCCN1)C1(c2ccc(F)c(C(F)(F)F)c2)CC1` [[22], Methyl (R)-(1-(4-fluoro-3-(trifluoromethyl)phenyl)cyclopropyl)(pyrrolidin-2-ylmethyl)carbamate], 0.21 µM. Regarding `CN1CCC[C@H]1CN(C1(c2ccc(F)c(C(F)(F)F)c2)CC1)S(C)(=O)=O` [[37], (S)—N-(1-(4-fluoro-3-(trifluoromethyl)phenyl)cyclopropyl)-N-((1-methylpyrrolidin-2-yl)methyl)methanesulfonamide], the IC50 turned out to be 0.14 µM.

Turning to `COC(=O)N(C[C@@H]1COCCN1)C1(c2ccc(F)c(C(F)(F)F)c2)CC1` [[39], Methyl (R)-(1-(4-fluoro-3-(trifluoromethyl)phenyl)cyclopropyl)(morpholin-3-ylmethyl) carbamate], the IC50 is 0.42 µM. Turning to `CC(C)(N)CN(C1(c2ccc(F)c(C(F)(F)F)c2)CC1)S(C)(=O)=O` [[21], N-(2-amino-2-methylpropyl)-N-(1-(4-fluoro-3-(trifluoromethyl)phenyl)cyclopropyl)methanesulfonamide], the IC50 worked out at 0.075 µM. To `CC(C)(N)CN(C(=O)C1CC1)C1(c2ccc(F)c(C(F)(F)F)c2)CC1` [[9], N-(2-amino-2-methylpropyl)-N-(1-(4-fluoro-3-(trifluoromethyl)phenyl)cyclopropyl)cyclopropanecarboxamide] belongs 0.35 µM; to `COC(=O)N(CC1CCN1)C1(c2ccc(F)c(OC(F)(F)F)c2)CC1` (stereo not drawn) [[32], Methyl (azetidin-2-ylmethyl)(1-(4-fluoro-3-(trifluoromethoxy)phenyl)cyclopropyl)carbamate], 0.27 µM; to `CC(C)(O)CN(CC1CCN1)C1(c2ccc(F)c(C(F)(F)F)c2)CC1` (stereo not drawn) [[14], 1-((azetidin-2-ylmethyl)(1-(4-fluoro-3-(trifluoromethyl)phenyl)cyclopropyl)amino)-2-methyl propan-2-ol], 0.25 µM. As for `O=C(OCC1CC1)N(C[C@@H]1CCCN1)C1(c2ccc(F)c(C(F)(F)F)c2)CC1` [[48], Cyclopropylmethyl (S)-(1-(4-fluoro-3-(trifluoromethyl)phenyl)cyclopropyl)(pyrrolidin-2-ylmethyl)carbamate], the half-maximal inhibitory concentration (IC50) was 0.23 µM. The result for `COC(=O)N(CC(C)(C)N)C1(c2cccc(Cl)c2)CC1` [[13], Methyl (2-amino-2-methylpropyl)(1-(3-chlorophenyl)cyclopropyl)carbamate] reads 0.44 µM. The result for `CCOC(=O)N(C[C@H]1CCCN1)C1(c2ccc(F)c(C(F)(F)F)c2)CC1` [[38], Ethyl (R)-(1-(4-fluoro-3-(trifluoromethyl)phenyl)cyclopropyl)(pyrrolidin-2-ylmethyl)carbamate] reads 0.12 µM. The result for `CCOC(=O)N(CC(C)(C)N)C1(c2ccc(F)c(C(F)(F)F)c2)CC1` [[19], Ethyl (2-amino-2-methylpropyl)(1-(4-fluoro-3-(trifluoromethyl)phenyl)cyclopropyl)carbamate] reads 0.047 µM; that for `Fc1ccc(C2(N(CC3CC3)C3CNC3)CC2)cc1C(F)(F)F` [[6], N-(cyclopropylmethyl)-N-(1-(4-fluoro-3-(trifluoromethyl)phenyl)cyclopropyl)azetidin-3-amine], 0.19 µM; that for `COC(=O)N(C[C@H]1COCCN1C)C1(c2ccc(F)c(C(F)(F)F)c2)CC1` [[43], Methyl (S)-(1-(4-fluoro-3-(trifluoromethyl)phenyl)cyclopropyl)((4-methylmorpholin-3-yl)methyl)carbamate], 0.29 µM.

In the case of `COC(=O)N(C[C@@H]1CCCN1)C1(c2ccc(F)c(OC(F)(F)F)c2)CC1` [[28], Methyl (S)-(1-(4-fluoro-3-(trifluoromethoxy)phenyl)cyclopropyl)(pyrrolidin-2-ylmethyl)carbamate], the IC50 was 0.087 µM. For `N[C@H]1CCC[C@@H]1NC1(c2ccc(F)c(C(F)(F)F)c2)CC1` [[51], (1S, 2S)—N1-(1-(4-fluoro-3-(trifluoromethyl)phenyl)cyclopropyl)-cyclopentane-1,2-diamine], the IC50 is 0.41 µM. In the case of `COC(=O)N(C[C@H]1CCCN1)C1(c2ccc(F)c(OC(F)(F)F)c2)CC1` [[29], Methyl (R)-(1-(4-fluoro-3-(trifluoromethoxy)phenyl)cyclopropyl)(pyrrolidin-2-ylmethyl)carbamate], the half-inhibitory concentration (IC50) stood at 0.33 µM. Regarding `CC(C)(N)CNC1(c2ccc(F)c(C(F)(F)F)c2)CC1` [[25], N1-(1-(4-fluoro-3-(trifluoromethyl)phenyl)cyclopropyl)-2-methylpropane-1,2-diamine], the IC50 turned out to be 0.18 µM. To `COC(=O)N(CC(C)(C)N)C1(c2cccc(C(F)(F)F)c2)CC1` [[15], Methyl (2-amino-2-methylpropyl)(1-(3-(trifluoromethyl)phenyl)cyclopropyl)carbamate] belongs 0.14 µM. As to `COC(=O)N(C[C@@H]1CCCN1)C1(c2ccc(F)c(C(F)(F)F)c2)CC1` [[23], Methyl (S)-(1-(4-fluoro-3-(trifluoromethyl)phenyl)cyclopropyl)(pyrrolidin-2-ylmethyl)carbamate], the IC50 worked out at 0.12 µM.

As to `COC(=O)N(CC1CCN1C)C1(c2ccc(F)c(C(F)(F)F)c2)CC1` (stereo not drawn) [[30], Methyl (1-(4-fluoro-3-(trifluoromethyl)phenyl)cyclopropyl)((1-methylazetidin-2-yl)methyl)carbamate], the concentration for half-maximal inhibition (IC50) stood at 0.17 µM. As to `COC(=O)N(CC(C)(C)N)C1(c2cc(Cl)cc(Cl)c2)CC1` [[11], Methyl (2-amino-2-methylpropyl)(1-(3,5-dichlorophenyl)cyclopropyl)carbamate], the IC50 turned out to be 0.3 µM.

In the case of `COC(=O)N(C[C@]1(C)CCCN1)C1(c2ccc(F)c(C(F)(F)F)c2)CC1` [[50], Methyl (S)-(1-(4-fluoro-3-(trifluoromethyl)phenyl)cyclopropyl)((2-methylpyrrolidin-2-yl)methyl)carbamate], the IC50 was found to be 0.15 µM. The result for `CCOC(=O)N(C[C@@H]1CCCN1)C1(c2ccc(F)c(C(F)(F)F)c2)CC1` [[34], Ethyl (S)-(1-(4-fluoro-3-(trifluoromethyl)phenyl)cyclopropyl)(pyrrolidin-2-ylmethyl)carbamate] reads 0.052 µM. For `COC(=O)N(C[C@@H]1COCCN1C)C1(c2ccc(F)c(C(F)(F)F)c2)CC1` [[40], Methyl (R)-(1-(4-fluoro-3-(trifluoromethyl)phenyl)cyclopropyl)((4-methylmorpholin-3-yl)methyl)carbamate], the IC50 was 0.27 µM.

Turning to `COC(=O)N(CCN)C1(c2ccc(F)c(C(F)(F)F)c2)CC1` [[7], Methyl (2-aminoethyl)(1-(4-fluoro-3-(trifluoromethyl)phenyl)cyclopropyl)carbamate], the IC50 was 0.48 µM. The result for `NC1(CNC2(c3ccc(F)c(C(F)(F)F)c3)CC2)CC1` [[47], N-((1-aminocyclopropyl)methyl)-1-(4-fluoro-3-(trifluoromethyl)phenyl)cyclopropan-1-amine] reads 0.22 µM.
